Results on 11 compounds are retold here after ChEMBL document CHEMBL1141818, “Annonaceous acetogenins: recent progress” (J Nat Prod, 1999).

In one data set the test system is PC-3. As to the kind of experiment: Cytotoxicity against human PC-3 cells. The class given is functional. To be noted: for EC50: Homo sapiens, PC-3, read-out: ED50 (the source's name).
A further data set has as its system MIA PaCa-2. As to the kind of experiment: Cytotoxicity against human MIA PaCa2 cells. The class given is functional. To be noted: for EC50: Homo sapiens, MIA PaCa-2, read-out: ED50 (the source's name).
The nature of data set [1]: Toxicity in brine shrimp. The following applies: artemia, in vivo. The class given is organism-based.
For a further data set, the system named is A549. As to the kind of experiment: Cytotoxicity against human A549 cells. The class given is functional. To be noted: Homo sapiens, A549; read-out: ED50 (the source's name).
A further data set deals with MCF7. As to the kind of experiment: Cytotoxicity against human MCF7 cells. The class given is functional. To be noted: for EC50: Homo sapiens, MCF7, read-out: ED50 (the source's name).
In another data set the test system is HT-29. As to the kind of experiment: Cytotoxicity against human HT-29 cells. The class given is functional. The following applies: Homo sapiens, HT-29; read-out: ED50 (the source's name).
The subject of the next data set is A498. As to the kind of experiment: Cytotoxicity against human A-498 cells. The class given is functional. To be noted: Homo sapiens, A498; read-out: ED50 (the source's name).

In brackets after ≈: the same amount, converted by molar mass.

Consider `CCCCCCCCCC[C@@H](O)[C@H]1CC[C@H]([C@H](O)CCCC[C@H](O)CCCCCCC[C@@H](O)CC2=C[C@H](C)OC2=O)O1` [GLACIN A], for which the EC50 in the data set on PC-3 came to 0.0098 µg/mL (≈ 0.0164 µM); in the data set on MIA PaCa-2, 0.0086 µg/mL (≈ 0.0144 µM); in the data set on A549 it was 1.5 µg/mL (≈ 2.51 µM); in the data set on MCF7, 0.0044 µg/mL (≈ 0.00737 µM); with HT-29, 2.3 µg/mL (≈ 3.85 µM); in the data set with A498 it was 1.3 µg/mL (≈ 2.18 µM). In data set [1], the LC50 came to 0.11 µg/mL (≈ 0.184 µM).

On to `CCCCCCCCCCCCCCCC[C@@H](O)[C@H]1CC[C@H]([C@H](O)CC[C@H](O)CCCCC[C@@H](O)CC2=C[C@H](C)OC2=O)O1` [GONIOTETRACIN], for which the EC50 worked out at 0.021 µg/mL (≈ 0.0336 µM) with PC-3; 0.026 µg/mL (≈ 0.0416 µM) in the data set on MIA PaCa-2; 0.39 µg/mL (≈ 0.624 µM) in the data set with A549; 1.7 µg/mL (≈ 2.72 µM) in the data set on MCF7; 1.5 µg/mL (≈ 2.4 µM) in the data set on HT-29; 1.5 µg/mL (≈ 2.4 µM) in the data set on A498. In data set [1], the 50% lethal concentration (LC50) is 0.2 µg/mL (≈ 0.32 µM).

In the case of `CCCCCCCCCCCCC(=O)C[C@@H]1C[C@@H](O)[C@@H](CC[C@H](O)[C@@H]2CC[C@@H](CCCCC[C@@H](O)CC3=C[C@H](C)OC3=O)O2)O1` [GONIOTRIOCIN], the EC50 with PC-3 turned out to be 0.26 µg/mL (≈ 0.408 µM); in the data set with MIA PaCa-2, 1.4 µg/mL (≈ 2.2 µM); in the data set on A549, 0.033 µg/mL (≈ 0.0518 µM); with HT-29 it was 0.0012 µg/mL (≈ 0.00188 µM); in the data set with A498 it was 1.1 µg/mL (≈ 1.73 µM). Moreover, in data set [1], the median lethal concentration (LC50) was 2.7 µg/mL (≈ 4.24 µM). This compound also gave an ED50 with MCF7 of 3.3 ×10⁻⁵ ug/ml.

Turning to `CCCCCCCCCC[C@@H]1O[C@H]([C@@H]2CC[C@H]([C@H](O)CCCCCCCCCC[C@@H](O)CC3=C[C@H](C)OC3=O)O2)CC[C@H]1O` [JIMENEZIN], the ED50 in the data set with PC-3 turned out to be 2.8 ×10⁻⁴ ug/ml; in the data set on MIA PaCa-2, 1.7 ×10⁻⁴ ug/ml. Moreover, the LC50 in data set [1] came to 0.0057 µg/mL (≈ 0.00915 µM). Further, the EC50 in the data set with A549 is 0.016 µg/mL (≈ 0.0257 µM); with MCF7, > 0.1 µg/mL; in the data set on HT-29, 0.0043 µg/mL (≈ 0.0069 µM); with A498, 0.049 µg/mL (≈ 0.0787 µM).

With `CCCCCCCCCCCCCC[C@H](O)CCCCCCC[C@H](O)CCCCC[C@@H](O)CC1=C[C@H](C)OC1=O` [LONGANIN], the EC50 in the data set on PC-3 stood at 0.4 µg/mL (≈ 0.706 µM); in the data set on MIA PaCa-2 it was 0.011 µg/mL (≈ 0.0194 µM); in the data set with A549, 0.011 µg/mL (≈ 0.0194 µM); in the data set on MCF7, 3.4 µg/mL (≈ 6 µM); with HT-29, 0.61 µg/mL (≈ 1.08 µM); in the data set with A498, 0.039 µg/mL (≈ 0.0688 µM). The compound also returned an LC50 in data set [1] of 12 µg/mL (≈ 21.2 µM).

`CCCCCCCCCCCC[C@@H](O)[C@H]1CC[C@H]([C@H](O)CCC(O)CCCC(O)CCC[C@@H](O)CC2=C[C@H](C)OC2=O)O1` (some centres not stated) [MURICAPENTOCIN]: the EC50 was determined as 0.45 µg/mL (≈ 0.734 µM) with PC-3; 0.05 µg/mL (≈ 0.0816 µM) in the data set with MIA PaCa-2; 0.19 µg/mL (≈ 0.31 µM) in the data set with A549; 1.9 µg/mL (≈ 3.1 µM) with MCF7; 0.071 µg/mL (≈ 0.116 µM) in the data set with HT-29; 1.7 µg/mL (≈ 2.77 µM) in the data set with A498. Further, the median lethal concentration (LC50) in data set [1] was found to be 1.8 µg/mL (≈ 2.94 µM).

For `CCCCCCCCCCCC[C@@H](O)[C@@H](O)CC[C@H](O)[C@@H]1CC[C@@H](C[C@@H](O)C[C@@H](O)CCC[C@@H](O)CC2=C[C@H](C)OC2=O)O1` [MURICOREACIN], the EC50 came out at 0.025 µg/mL (≈ 0.0398 µM) in the data set on PC-3; 2.3 µg/mL (≈ 3.66 µM) in the data set with MIA PaCa-2; 0.0023 µg/mL (≈ 0.00366 µM) with A549; 1.3 µg/mL (≈ 2.07 µM) in the data set with MCF7; 0.57 µg/mL (≈ 0.906 µM) in the data set with HT-29; 0.71 µg/mL (≈ 1.13 µM) in the data set on A498. Further, the LC50 in data set [1] was 19 µg/mL (≈ 30.2 µM).

As for `CCCCCCCCCCCC[C@@H](O)[C@@H](O)CC[C@H](O)[C@@H]1CC[C@@H](CCC[C@@H](O)[C@H](O)CC[C@@H](O)CC2=C[C@H](C)OC2=O)O1` [MURIHEXOCIN], the EC50 amounted to 0.86 µg/mL (≈ 1.37 µM) in the data set with PC-3; 0.49 µg/mL (≈ 0.779 µM) with MIA PaCa-2; 1.1 µg/mL (≈ 1.75 µM) in the data set on A549; 3.8 µg/mL (≈ 6.04 µM) in the data set with MCF7; 1.3 µg/mL (≈ 2.07 µM) with HT-29; 2.5 µg/mL (≈ 3.98 µM) with A498. For the same compound, the LC50 in data set [1] came out at 10 µg/mL (≈ 15.9 µM).

In the case of `CCCCCCCCCCCCCC[C@H]1O[C@@H]([C@H](O)CC[C@H](O)CCCCC[C@@H](O)CC2=C[C@H](C)OC2=O)CC[C@H]1O` [PYRAGONICIN], the EC50 with PC-3 turned out to be 0.12 µg/mL (≈ 0.201 µM); in the data set with MIA PaCa-2, 0.058 µg/mL (≈ 0.0972 µM); in the data set on A549 it was 2 µg/mL (≈ 3.35 µM); in the data set with MCF7, 1.6 µg/mL (≈ 2.68 µM); in the data set on HT-29, 2.8 µg/mL (≈ 4.69 µM); with A498 it was 0.13 µg/mL (≈ 0.218 µM). This compound also registered an LC50 in data set [1] of 0.9 µg/mL (≈ 1.51 µM).

Regarding `CCCCCCCCCCCC[C@H]1O[C@@H]([C@H](O)CCCC[C@H](O)CCCCC[C@@H](O)CC2=C[C@H](C)OC2=O)CC[C@H]1O` [PYRANICIN], the EC50 in the data set on PC-3 was determined as 0.41 µg/mL (≈ 0.687 µM); in the data set on MIA PaCa-2, 0.0013 µg/mL (≈ 0.00218 µM); in the data set with A549, 0.28 µg/mL (≈ 0.469 µM); in the data set with MCF7 it was 0.39 µg/mL (≈ 0.653 µM); with HT-29, 1.2 µg/mL (≈ 2.01 µM); in the data set on A498, 0.18 µg/mL (≈ 0.302 µM). In addition, the 50% lethal concentration (LC50) in data set [1] was found to be 0.3 µg/mL (≈ 0.503 µM).

Turning to `CCCCCCCCCCCC[C@@H](O)[C@H]1CCC(C2CCC(CC(O)CCCCC[C@@H](O)CC3=C[C@H](C)OC3=O)O2)O1` (some centres not stated) [ROLLINACIN], the EC50 with PC-3 was found to be 2.5 µg/mL (≈ 4.2 µM); in the data set on MIA PaCa-2, 2 µg/mL (≈ 3.36 µM); in the data set with A549, 0.046 µg/mL (≈ 0.0773 µM); with MCF7, 0.16 µg/mL (≈ 0.269 µM); in the data set with HT-29, 2.1 µg/mL (≈ 3.53 µM); in the data set on A498, 1.6 µg/mL (≈ 2.69 µM). The compound further came in with a 50% lethal concentration (LC50) in data set [1] of 3.5 µg/mL (≈ 5.88 µM).

As usually defined, the LC50 is the concentration lethal to half of the exposed cells or organisms. A low value points to a more lethal substance.
